Source: patent publication US20040259861A1, “Medicament inhibiting sodium/calcium exchange system” (priority 2001, published 2004)

Target: T1, sodium/calcium exchanger (Rattus norvegicus, UniProt Q01728)
T1 construct: The heart of the rat was excised and perfused with Krebs buffer solution; from tissue; host or cells: isolated Langendorff-perfused rat heart
Assay: Langendorff-perfused rat heart, monensin treatment plus ischemia/reperfusion: ventricular total calcium content and recovery in contractile tension
Details: for Calcium Content: isolated rat heart, monensin 5 μM 10 min, ischemia 15 min, reperfusion 30 min; for effect on decreased recovery in contractile tension (in words) / effect on increased ventricular calcium content (in words): monensin treatment and ischemia/reperfusion, rat heart
Procedure: The heart of the rat was excised and perfused with Krebs buffer solution (in mM: NaCl 119, KCl 4.6, MgSO4.7H2O 1.2, CaCl2.2H2O 1.3, NaHCO3 25, KH2PO4 1.2, glucose 11; pH 7.4, 37° C.) according to Langendorff method. A thread attached to the apex of the heart was connected to a tension transducer to determine contractile tension. The heart was perfused with a perfusion solution containing monensin (5 μ M; sodium ionophore) for 10 min and then ischemia was induced by a cessation of coronary flow (for 15 min). After reperfusion for 30 min, the heart was liquefied in nitric acid, and ventricular total calcium content was determined by atomic absorption analysis. Contractile tension was measured during the experiment, and recovery in contractile tension at 30 min of reperfusion related to its pre-value was used as an index of cardiac contraction.

SMILES | Calcium Content (10^−5 M) [µmol/g] | Calcium Content (10^−6 M) [µmol/g] | effect on decreased recovery in contractile tension (in words) | effect on increased ventricular calcium content (in words) | Calcium Content (10^−3 M) [µmol/g] | Calcium Content (10^−4 M) [µmol/g] | Calcium Content (10^−7 M) [µmol/g] | effect on increased ventricular calcium content (in words) (listed as The medicament of the present invention, monohydrate) | effect on increased ventricular calcium content (in words) (listed as the medicament of the present invention, monohydrate)
COc1ccc([C@@H]2Sc3ccccc3N(CCN(C)C)C(=O)[C@@H]2OC(C)=O)cc1 [Diltiazem] | 5.89 ± 0.22 | 5.75 ± 0.16 | failed to exhibit these effects | failed to exhibit these effects |  |  |  |  | 
N=C(N)NC(=O)c1nc(Cl)c(N)nc1N [Amiloride] |  |  | failed to exhibit these effects | failed to exhibit these effects | 4.26 ± 0.40 | 5.30 ± 0.25 |  |  | 
Cc1ccc(N2CCNCC2)c(S(=O)(=O)O)c1.O [Compound of the Present Invention, 5-methyl-2-(1-piperazinyl)benzenesulfonic acid monohydrate] |  | 2.72 ± 0.18 | improved |  |  |  | 3.72 ± 0.16 | improved | effective in reducing increase in ventricular calcium content
